Results reported in patent US12357924B2, “Process for producing enriched fraction from Bacopa monnieri extract for management of neurodegenerative disorders” (STAR HI HERBS PVT LTD, priority 2021, dated 2025).

Tests used:
[1] = system: behavior of rats in elevated plus maze; test: Elevated plus maze test; type: in vivo, Wistar strain rats; conditions: 5 minutes test; Bacosane 50 and 100 mg/kg p.o., diazepam 1 mg/kg; vs vehicle
Description: (§1) In further embodiment of the present invention the anxiolytic effect of Bacopa monnieri extract Bacosane is determined by employing 4 different tests i.e., the elevated plus maze (EPM) test, open field test (OFT), […] test and Light dark transition test. The compounds used in these four tests comprises Bacopa monnieri extract Bacosane; and Diazepam (1 mg/kg, i.p.) which is used as standard anxiolytic agent. The four tests are performed on Wistar strain rats of both sex of weighing 130 to 180 g, which were divided into four groups of six rats each (Group I, Group II, Group III and Group IV)
(§2) Group I vehicle (normal saline) at a dose of 10 ml/kg body weight
(§3) Group II received Bacopa monnieri extract Bacosane, at a dose of 50 mg/kg body weight
(§4) Group III received Bacopa monnieri extract Bacosane, at a dose of 100 mg/kg body weight
(§5) Group IV received standard drug, diazepam 1 mg/kg body weight
FIG. 9 depicts comparison of effect of Bacopa monnieri extract Bacosane and diazepam in behavior of rats in elevated plus maze test. […] The percentage of time spent (duration) in open arms and frequency of open arm entries were counted for a period of 5 minutes. […] The percentage of time spent in the open arms and number of open arm entries were calculated using the formulas [100×open/(open+enclosed)] and (100×open/total entries), respectively.

[2] = system: locomotor activity of the rats; test: Actophotometer method (locomotor activity); type: in vivo, Wistar strain rats; conditions: diazepam 1 mg/kg
Description: In further embodiment of the present invention the anxiolytic effect of Bacopa monnieri extract Bacosane is determined by employing 4 different tests i.e., the elevated plus maze (EPM) test, open field test (OFT), Astrophotometer test and Light dark transition test. The compounds used in these four tests comprises Bacopa monnieri extract Bacosane; and Diazepam (1 mg/kg, i.p.) which is used as standard anxiolytic agent. The four tests are performed on Wistar strain rats of both sex of weighing 130 to 180 g, which were divided into four groups of six rats each (Group I, Group II, Group III and Group IV)
In this test, the rats are placed in the digital Actophotometer in which a constant beam of light from six lights will be made to fall on corresponding photoelectric cells. The photoelectric cells get activated when an animal crosses the beam of light and thereby cuts off (crossing) the rays of light falling on it. After 1 hour of Bacopa Monnieri extract Bacosane administration the numbers of crossings are counted for a period of 10 minutes by the actophotometer. […]

[3] = system: behavior of rats in open field; test: Open field test; type: in vivo, Wistar strain rats; conditions: 5 minutes; Diazepam 1 mg/kg, Bacosane 50 mg/kg and 100 mg/kg; vs normal saline
Description: as §1, §2, §3, §4, §5
FIG. 11 depicts comparison of effect of Bacopa monnieri extract Bacosane and Diazepam on behavior of rats in open field test. The apparatus comprises a wooden box (60×60×60 cm). The area of the open field was divided into 16 squares (15×15 cm), the four inner squares in the center and 12 squares in the periphery along the walls. The other identical condition comprises of sound attenuated and dark experimental room. […]

MES induced convulsion = test: Maximal electroshock induced seizures (MES) model; type: in vivo, albino Wister rats
Description: (§6) In further embodiment of the present invention the anticonvulsant activity of Bacopa monnieri extract Bacosane is determined using Pentylenetetrazole (PTZ) and the maximal electroshock seizure (MES) models. The analysis is performed on healthy Swiss mice of either sex, weighing about 25-30 g and Wistar rats of either sex, weighing about 150-200 g. The animals were grouped and housed in polyacrylic cages (38×23×10 cm) with not more than six animals per cage and maintained under standard laboratory conditions (temperature 25° C.) with dark and light cycle (12/12 h). All the animals were acclimatized to laboratory condition for a week before commencement of the analysis. The animals were randomly allocated into four groups of six each: Group I (control group), Group II, Group III, Group IV.
Group-I received 10 ml/kg of 1% NaCMC p.o. which served as control.
Group-II received phenytoin sodium (25 mg/kg, orally) as standard controls in MES method and PTZ induced seizures method respectively.
Group-III and IV were administered two graded doses of Bacopa monnieri extract Bacosane i.e., 50 mg/kg and 100 mg/kg, respectively, p.o.
In the above analysis the percentage protection of animals was recorded as percentage of reduction in duration of seizures wherein the control group is assumed as 100%. The observations of group II, III and IV were compared with control Group-I. It is observed that Bacopa monnieri extract Bacosane has potential anticonvulsant activity due to the presence of certain active phytoconstituents. The anticonvulsant activity of Bacopa monnieri extract Bacosane involves GABAergic transmission and glutaminergic transmission or sodium channel blockage. However, it can be considered that the Bacopa monnieri extract Bacosane as a potent anticonvulsant supplement. The analysis and observations of Pentylenetetrazole (PTZ) and the maximal electroshock seizure (MES) models is shown in FIG. 3 to FIG. 6.
FIG. 3 is the graphical representation of effect of Bacopa Monnieri extract Bacosane on tonic extension phase in MES induced convulsion. […]

[4] = system: PTZ induced tonic-clonic convulsions; test: Pentylenetetrazole (PTZ) induced convulsions model; type: in vivo, rats; conditions: phenytoin sodium 25 mg/kg orally
Description: as §6
Group-I received 10 ml/kg of 1% NaCMC p.o. which served as control. […]
In the above analysis the percentage protection of animals was recorded as percentage of reduction in duration of seizures wherein the control group is assumed as 100%. […]
FIG. 5 depicts graphical representation of effect of Bacopa Monnieri extract Bacosane on tonic-clonic convolution in Pentylenetetrazole (PTZ) induced model in rats. […] The onset of convulsions, number of animals that convulsed and number of animals that were protected from clonic convulsions were recorded.

hippocampus = conditions: sub-chronic and chronic administration, 30 mg/kg; cited from earlier work
[5] = DPPH free radical scavenging assay; type: biochemical; conditions: 0.1 mM DPPH in methanol, 30 minutes, absorbance at 517 nm
Description: The free radical scavenging activity of Bacopa monnieri extract Bacosane and BHT is determined through the process comprising steps of: preparing solution of 0.1 mM DPPH in methanol, and 1.5 mL of this solution was mixed with 1.5 mL of extract in methanol at different concentrations (50, 100, 150, 200 and 250 m/mL); and measuring the absorbance at 517 nm, after leaving the above mixture for 30 minutes of incubation at dark room. Butylated hydroxytoluene (BHT) was used as the reference standard at different concentrations (20, 40, 60, 80 and 100 m/m1). The radical scavenging activity of DPPH was calculated using the following equation: [A0-A1)/A0]×100 where A0 is the absorbance of the control, and A1 is the absorbance of the standard. Then the percentage (%) of inhibition was plotted against concentration of the Bacopa monnieri extract Bacosane and BHT, and from the graph as shown in FIGS. 7A-7B half-maximal inhibitory concentration (IC50) was calculated to determine the efficacy of Bacopa monnieri extract Bacosane in comparison to standard butylated hydroxytoluene (BHT).

CN1C(=O)CN=C(c2ccccc2)c2cc(Cl)ccc21 [Diazepam]
closed arm number of entries and time spent [1]: significantly decreased
percentage of number of open arm entries and time spent in open arm [1]: significant increase
number of crossings of light beams compared to control group [2]: significantly reduced
anxiolysis (increased ambulation, rearing and preening, decreased defecations) [3]: significantly exhibited anxiolysis

O=C1NC(=O)C(c2ccccc2)(c2ccccc2)N1 [Phenytoin, phenytoin sodium]
hind limb tonic extension (MES induced convulsion; MES model, compared to control group): decreased
extensor phase (MES induced convulsion; MES model, phenytoin sodium 25 mg/kg orally): abolished the extensor phase completely
protection in animals against MES (MES induced convulsion; phenytoin sodium 25 mg/kg orally): 100%
anticonvulsant effect (latency, onset of clonic convulsions, onset of tonic seizures) ([4]; PTZ 90 mg/kg i.p., Bacosane 50 and 100 mg/kg orally): significantly anticonvulsant activity
protection ([4]; PTZ model): 100%

C[C@H]1[C@H](C)CC[C@]2(C(=O)O)CC[C@]3(C)C(=CC[C@@H]4[C@@]5(C)C[C@@H](O)[C@H](O)[C@@](C)(CO)[C@@H]5CC[C@]43C)[C@H]12 [asiatic acid]
cell proliferation in the hippocampus (hippocampus): increase
spatial working memory (hippocampus): stimulate

Cc1cc(C(C)(C)C)c(O)c(C(C)(C)C)c1 [butylated hydroxytoluene (BHT), butylated hydroxytoluene]
half-maximal inhibitory concentration (IC50), DPPH free radical scavenging [5]: 150.50 µg/mL
